Data on three molecules can be found in article PMC9227096, “Design, Synthesis, and In Vitro, In Silico and In Cellulo Evaluation of New Pyrimidine and Pyridine Amide and Carbamate Derivatives as Multi-Functional Cholinesterase Inhibitors” (Pharmaceuticals, 2022).

A short description of one series: MTT cell viability assay. It is filed as cell-based. The note with it: human, U-87 MG glioblastoma astrocytoma cells, U-87 MG cells; for viability at 24 h, 10 µM: 10 µM (12 and 18: up to 10 µM). As to the method:
Compounds 12, 14 and 18 were tested to evaluate the cytotoxic effects on U-87 MG Cell Line from human brain (glioblastoma astrocytoma) at concentration ranging from 1 to 50 µM.
The compounds 12, 14 and 18 were evaluated for cell viability effects using the MTT assay. Briefly, U-87 MG Cell Line from human brain (glioblastoma astrocytoma) (ATCC, Manassas, VA, USA) were seeded into 96-well microtiter plates (NunclonTM, Nunc, Germany) at a density of 1.5 × 10^4 cells/well. […]. After an incubation time of 24 h, the medium was replaced by a new, fresh medium containing 0.5 mg/mL MTT (Sigma, Deisenhofen, Germany). After 2 h at 37 °C in 5%, CO2 unreacted dye was removed and the cells were dissolved by DMSO (Merck, Darmstadt, Germany). Absorbance was read at 570 nm by a microtiter spectrophotometer plate reader. The data were expressed as absorbance relative to untreated cells in the same experiment and standardized to 100%. All data points were performed in triplicate and at least three independent experiments.
For orientation: Tetrazolium dyes change colour on reduction, which living cells bring about.

Another series concerns the target T1, equine BChE (eqBChE) (Equus caballus, UniProt P81908).
T1 construct: purchased Sigma-Aldrich (Milan, Italy)
Briefly: Ellman's spectrophotometric method, percent inhibition of eqBChE (zero time and after 1 h incubation). The note with it: read-out: % Inhibition vs. eqBChE ± SD; for inhibition at 9 µM: [I] 9 µM. It is filed as biochemical. As to the method:
Regarding the synthesized compounds enzymatic inhibition studies were carried out on Electrophorus electricus AChE (EeAChE) and equine BChE (eqBChE), according to Ellman’s spectrophotometric method.
All other chemical and biological reagents and solvents used were of the highest analytical, commercially available grade. The water, utilized for the preparation of the phosphate buffer and of the solutions of compounds, was distilled and filtered on nylon membrane filters with 0.2 μm pore size with the Millipore® Filtration apparatus before each use. Micropipettes Labmate (BRAND Dig. 10–100 μL; Dig. 100–1000 μL; Dig. 0.1–2 μL) and Transferpette (HIGH TECH LAB LM200: 20–200 μL; LM5000: 1000–5000 μL) were used to collect the samples. The assays were carried out by double beam UV–Vis Lambda 40 Perkin Elmer spectrophotometer, using optical polystyrene cuvettes (10 × 10 × 45 mm, 340–800 nm optical transparency), each measure was repeated at least in triplicate. […] Vivaspin® 2 Sartorius, with a membrane of 3000 MWCO (molecular weight cutoff) consisting of polyethersulfone (PES), cellulose triacetate (CTA) and hydrosart, was used for the ultrafiltration procedures. An ALC PK110 bench-top centrifuge was used for centrifugation. The spectrophotometric method of Ellman, with minor modifications, was used to evaluate the inhibition of cholinesterase enzymes. […] EeAChE and eqBChE were periodically tested to evaluate the effective enzymatic activity.
An amount of 3.0 mL of a solution in 0.1 M phosphate buffer (pH = 7.4) containing DTNB (0.25 mM) and EeAChE (0.083 UmL^−1) or eqBChE (0.083 UmL^−1) were placed in a polystyrene cuvette of 1.0 cm path length; 1 µL of a solution in DMSO of the tested compound was added to obtain in cuvette concentration range 9 µM–0.09 µM. With this solution the blank was made.
Each experiment was repeated at least in triplicate.
The cuvettes were prepared consecutively at intervals of 3 min to allow equal incubation times.
(In general: DTNB colorimetry detects thiols as they appear.)

In the next series the target is T2, tau protein (Homo sapiens, UniProt P10636).
T2 construct: expressed in transfected cells; host or cells: E. coli BL21 (DE3) with pTARA (T7 RNA polymerase under PBAD) and pRKT42
The series can be described thus: Inhibition of tau aggregation in intact E. coli cells, thioflavin-S staining. It is filed as cell-based, Escherichia coli. As to conditions: [I] = 100 µM, E. coli cells overexpressing tau. As to the method:
For compounds 12, 14 and 18, the inhibitory activity against Aβ42 and tau aggregation was evaluated. The anti-aggregating effect of tested compounds was monitored by a cell-based assay in intact Escherichia coli cells that overexpress either Aβ42 peptide or tau protein, which, upon expression, form insoluble inclusion bodies that were stained with thioflavin-S [42]. The percentages of inhibition towards Aβ42 and tau aggregation were determined at an inhibitor concentration of 100 µM and the obtained results are reported in Table 6. In general, these compounds show a weak anti-aggregating activity; among these, the pyridine carbamate 18 is the best inhibitor of aggregation of both Aβ42 and tau.
E. coli BL21 (DE3) competent cells were transformed with pTARA containing the RNA-polymerase gene of T7 phage (T7RP), under the control of the promoter PBAD. E. coli BL21 (DE3), with pTARA competent cells, were transformed with the pRKT42 vector encoding four repeats of the tau protein in two inserts. For overnight culture preparation, 10 mL of the M9 medium containing 0.5% of glucose, 50 μg·mL^−1 of ampicillin, and 12.5 μg·mL^−1 of chloramphenicol was inoculated with a colony of BL21 (DE3) bearing the plasmids to be expressed at 37 °C. […]
Th-S (T1892) and other chemical reagents were purchased from Sigma (St. Louis, MO, USA). […] Th-S fluorescence and absorbance were tracked using a DTX 800 plate reader Multimode Detector equipped with a Multimode Analysis Software (Beckman-Coulter, Indianapolis, IN, USA). […] A filter of 535/25 nm was also used for the absorbance determination. To normalize the Th-S fluorescence as a function of the bacterial concentration, OD600 was obtained using a Shimadzu UV-2401 PC UV–Vis spectrophotometer (Shimadzu, Japan). Note that the fluorescence normalisation was carried out considering 100% of the Th-S fluorescence of the bacterial cells expressing the peptide or protein in the absence of the drug and 0% of the Th-S fluorescence of the bacterial cells not expressing the peptide or protein. […]

Where [1] appears, read: [I] 900 nM, 0.0833 U/mL enzyme, 100 µM acetylthiocholine.
Where [2] appears, read: 0.0833 U/mL enzyme, 100 µM acetylthiocholine.

Like-named read-outs stand apart in the source and are kept apart here. Some results are limits rather than exact numbers.

T2 sequence (P10636 1-441 isoform P10636-8): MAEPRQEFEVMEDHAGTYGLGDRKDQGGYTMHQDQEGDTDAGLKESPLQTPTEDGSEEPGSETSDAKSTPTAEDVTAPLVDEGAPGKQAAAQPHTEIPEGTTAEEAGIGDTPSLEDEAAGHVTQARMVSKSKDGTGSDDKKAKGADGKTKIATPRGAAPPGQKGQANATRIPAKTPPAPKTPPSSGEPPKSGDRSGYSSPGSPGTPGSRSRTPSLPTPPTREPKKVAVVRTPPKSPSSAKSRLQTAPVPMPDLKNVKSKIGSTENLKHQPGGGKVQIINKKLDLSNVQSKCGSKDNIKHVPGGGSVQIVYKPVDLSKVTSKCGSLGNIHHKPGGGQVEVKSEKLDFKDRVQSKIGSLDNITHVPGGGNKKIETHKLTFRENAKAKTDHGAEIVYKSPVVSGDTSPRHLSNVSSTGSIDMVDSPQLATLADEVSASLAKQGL
T1 sequence (P81908 whole entry): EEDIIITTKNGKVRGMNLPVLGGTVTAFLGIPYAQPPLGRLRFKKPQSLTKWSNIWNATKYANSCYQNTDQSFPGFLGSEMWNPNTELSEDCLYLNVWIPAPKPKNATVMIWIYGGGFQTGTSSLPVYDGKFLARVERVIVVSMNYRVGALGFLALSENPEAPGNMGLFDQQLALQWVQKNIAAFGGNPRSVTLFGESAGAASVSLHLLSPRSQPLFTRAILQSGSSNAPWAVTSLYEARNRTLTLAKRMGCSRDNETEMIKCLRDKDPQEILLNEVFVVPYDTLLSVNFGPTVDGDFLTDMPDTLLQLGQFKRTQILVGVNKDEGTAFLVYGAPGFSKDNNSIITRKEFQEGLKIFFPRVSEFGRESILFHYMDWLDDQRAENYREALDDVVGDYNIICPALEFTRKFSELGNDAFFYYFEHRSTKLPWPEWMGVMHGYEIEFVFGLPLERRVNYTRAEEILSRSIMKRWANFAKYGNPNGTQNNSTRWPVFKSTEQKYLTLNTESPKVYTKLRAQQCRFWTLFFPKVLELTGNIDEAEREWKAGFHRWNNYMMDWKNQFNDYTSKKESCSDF

The viability is a per cent measure of how many cells are alive, often set against a control. Read a high viability as less harm to the cells. What is called inhibition is the change of the read-out against control, counted positive when it falls. `O=C(NCCCCCCNc1ccccn1)c1ccccc1` [Compound 12, N-(6-(pyridin-2-ylamino)hexyl)benzamide]: in “MTT cell viability assay”, the viability at 24 h, 10 µM is above 90% and the viability at 24 h, 50 µM was above 35%. For the same molecule, on equine BChE (eqBChE) (setting [1]), the inhibition at 0.9 µM turned out to be 22%. The inhibition at 9 µM at equine BChE (eqBChE) (setting [2]) stood at 81%. The same molecule yielded an inhibition at 100 µM against tau protein of 11%.
In the series “MTT cell viability assay”, `O=C(Cc1ccc(Oc2ccccc2)cc1)NCCCCCCNc1ccccn1` [Compound 14, 2-(4-phenoxyphenyl)-N-(6-(pyridin-2-ylamino)hexyl)acetamide] had a viability at 24 h, 10 µM above 65% and a viability at 24 h, 50 µM above 30%. In addition, the inhibition at 0.9 µM at equine BChE (eqBChE) (setting [1]) is 45%. Besides, the inhibition at 9 µM on equine BChE (eqBChE) (setting [2]) is 88%. For the same molecule, the inhibition at 100 µM on tau protein amounted to 10.9%.
For `O=C(NCCCCCCNc1ccccn1)Oc1ccccc1` [Compound 18, Phenyl (6-(pyridin-2-ylamino)hexyl)carbamate], in “MTT cell viability assay”, the viability at 24 h, 10 µM was above 90% and the viability at 24 h, 50 µM is above 35%. For the same molecule, the inhibition at 0.9 µM on equine BChE (eqBChE) (1 h, [I] = 900 nM, t = 1 h incubation at 25 °C) is 79.6 ± 5.3%. Besides, 100 µM produced 15.7% inhibition on tau protein.
